Assay results from BindingDB's records for doi:10.1016/0960-894X(95)00351-S (1995).

Assay: Inhibition of platelet aggregation using human platelet rich plasma (hPRP) assay (200microL, 2-3 x 10e 8 platelets/mL, n=1)

IC50 [nM] | SMILES
2000 | CC(C)[C@H]1NC(=O)c2cccc(n2)CNC(=O)[C@H](CC(=O)O)NC(=O)CNC(=O)[C@H](CCCN=C(N)N)N(C)C1=O [[(5S,11S,14S)-11-(3-Guanidino-propyl)-14-isopropyl-12-methyl-4,7,10,13,16-pentaoxo-3,6,9,12,15,21-hexaaza-bicyclo[15.3.1]henicosa-1(21),17,19-trien-5-yl]-acetic acid]
20 | CC(C)[C@H]1NC(=O)c2cccc(c2F)CNC(=O)[C@H](CC(=O)O)NC(=O)CNC(=O)[C@H](CCCN=C(N)N)N(C)C1=O [[(5S,11S,14S)-21-Fluoro-11-(3-guanidino-propyl)-14-isopropyl-12-methyl-4,7,10,13,16-pentaoxo-3,6,9,12,15-pentaaza-bicyclo[15.3.1]henicosa-1(20),17(21),18-trien-5-yl]-acetic acid]
100 | CC(C)[C@H]1NC(=O)c2ccc([nH]2)CNC(=O)[C@H](CC(=O)O)NC(=O)CNC(=O)[C@H](CCCNC(=N)N)N(C)C1=O [[(5S,11S,14S)-11-(3-Guanidino-propyl)-14-isopropyl-12-methyl-4,7,10,13,16-pentaoxo-3,6,9,12,15,20-hexaaza-bicyclo[15.2.1]icosa-1(19),17-dien-5-yl]-acetic acid]
200 | CC(C)[C@H]1NC(=O)/C=C\CCNC(=O)[C@H](CC(=O)O)NC(=O)CNC(=O)[C@H](CCCNC(=N)N)N(C)C1=O [[(Z)-(3R,9R,12R)-9-(3-Guanidino-propyl)-12-isopropyl-10-methyl-2,5,8,11,14-pentaoxo-1,4,7,10,13pentaaza-cyclooctadec-15-en-3-yl]-acetic acid]
400 | CC(C)[C@H]1NC(=O)Cc2csc(n2)NC(=O)[C@H](CC(=O)O)NC(=O)CNC(=O)[C@H](CCCN=C(N)N)N(C)C1=O [[(4S,10S,13S)-10-(3-Guanidino-propyl)-13-isopropyl-11-methyl-3,6,9,12,15-pentaoxo-19-thia-2,5,8,11,14,20-hexaaza-bicyclo[15.2.1]icosa-1(20),17-dien-4-yl]-acetic acid]
100 | CC(C)[C@H]1NC(=O)C2=CC=C(CNC(=O)[C@H](CC(=O)O)NC(=O)CNC(=O)[C@H](CCCN=C(N)N)N(C)C1=O)S2 [[(5S,11S,14S)-11-(3-Guanidino-propyl)-14-isopropyl-12-methyl-4,7,10,13,16-pentaoxo-20-thia-3,6,9,12,15-pentaaza-bicyclo[15.2.1]icosa-1(19),17-dien-5-yl]-acetic acid]
20 | CC(C)[C@H]1NC(=O)c2cccc(c2)CNC(=O)[C@H](CC(=O)O)NC(=O)CNC(=O)[C@H](CCCNC(=N)N)N(C)C1=O [DMP-757]
200 | CC(C)[C@H]1NC(=O)C/C=C\CNC(=O)[C@H](CC(=O)O)NC(=O)CNC(=O)[C@H](CCCN=C(N)N)N(C)C1=O [[(Z)-(3R,9R,12R)-9-(3-Guanidino-propyl)-12-isopropyl-10-methyl-2,5,8,11,14-pentaoxo-1,4,7,10,13pentaaza-cyclooctadec-16-en-3-yl]-acetic acid]
50 | CC(C)[C@H]1NC(=O)C2=CC=C(CNC(=O)[C@H](CC(=O)O)NC(=O)CNC(=O)[C@H](CCCNC(=N)N)N(C)C1=O)O2 [[(5S,11S,14S)-11-(3-Guanidino-propyl)-14-isopropyl-12-methyl-4,7,10,13,16-pentaoxo-20-oxa-3,6,9,12,15-pentaaza-bicyclo[15.2.1]icosa-1(19),17-dien-5-yl]-acetic acid]
